We go through four molecules from US20040106545A1, “Compounds and methods for modulating cell adhesion” (priority 1996, published 2004).

In one series the test system is PC-3. Kind of series: Cytotoxicity, MTT assay, PC-3. Format: cell-based, human. In outline: (§1)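 Cytotoxicity of N-Ac-CHAVC-NH2 and the control peptide N-Ac-CHGVC-NH2 was assessed by MTT reduction in human endothelial, fibroblast and cancer cell lines at concentrations up to 100 μM. Proliferation was measured separately by ^3H-thymidine incorporation over the same concentration range.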
(Formazan colour is commonly taken as a measure of viable cells.)

Another series concerns the target T1, N-cadherin (Gallus gallus, UniProt P10288).
T1 construct: expressed in transfected cells; host or cells: 3T3 fibroblasts (monolayer)
T1 sequence (P10288 165-912): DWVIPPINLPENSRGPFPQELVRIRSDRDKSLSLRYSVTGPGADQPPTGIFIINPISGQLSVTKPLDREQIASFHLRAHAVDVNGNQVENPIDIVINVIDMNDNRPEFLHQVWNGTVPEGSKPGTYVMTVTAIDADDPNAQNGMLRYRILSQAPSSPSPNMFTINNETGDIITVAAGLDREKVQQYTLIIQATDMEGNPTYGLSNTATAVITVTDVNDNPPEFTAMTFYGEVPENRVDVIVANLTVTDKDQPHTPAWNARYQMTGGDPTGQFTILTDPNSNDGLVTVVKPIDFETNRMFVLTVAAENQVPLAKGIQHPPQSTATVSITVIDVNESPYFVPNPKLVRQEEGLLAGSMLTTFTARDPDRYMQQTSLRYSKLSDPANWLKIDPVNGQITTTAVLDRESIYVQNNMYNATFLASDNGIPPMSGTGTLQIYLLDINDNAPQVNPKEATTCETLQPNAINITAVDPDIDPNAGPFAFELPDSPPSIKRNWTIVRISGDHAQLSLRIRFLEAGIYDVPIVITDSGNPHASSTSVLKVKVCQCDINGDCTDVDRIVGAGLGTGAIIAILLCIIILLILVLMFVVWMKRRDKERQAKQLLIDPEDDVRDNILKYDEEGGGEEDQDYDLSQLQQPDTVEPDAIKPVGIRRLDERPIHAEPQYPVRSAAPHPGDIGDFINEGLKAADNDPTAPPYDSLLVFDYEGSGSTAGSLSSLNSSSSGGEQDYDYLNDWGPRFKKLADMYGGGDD
Kind of series: Neurite outgrowth inhibition, rat neurons (Example 21). In kind it is cell-based. The conditions noted are these: 250 μg/mL; for inhibition at 250 µg/mL: read-out: % Inhibition of neurite outgrowth.

The next series relates to SKOV3 cells. Kind of series: Disruption of human ovarian cancer cell (SKOV3) adhesion. The conditions noted are these: for activity in SKOV3 cells (cell adhesion): 0.01-1 mg/mL; for disruption of SKOV3 cell adhesion: 1 mg/mL media, within 24 hours. Format: cell-based. The method, then:
FIGS. 37A and 37B are photographs illustrating the effect of N—Ac-CHAVC-Y—NH2 (SEQ ID NO:84) on SKOV3 cell adhesion. A confluent culture of SKOV3 cells was briefly trypsinated and counted using a hemacytometer. The cells were diluted to 5×10^3/mL in MEM (Gibco BRL) containing 10% FBS (Wisent). A 10 mg/mL solution of peptide was added directly to the media at a concentration of 1 mg/mL. The plate was incubated in a humidified chamber at 37° C. for 24 hours in 5% CO2. Morphological changes were evaluated after 24 hours.
The human ovarian cancer cell line SKOV3 (ATCC #HTB-77) expresses N-cadherin. SKOV3 cells were cultured in a modified MEM-based media containing 10% FCS. Cells were grown in T-250 culture flasks and maintained by periodic subculturing. Cyclic peptides were tested on cells grown in individual wells of 96-well culture dishes (surface area of each well was 0.32 cm^2). Cells were harvested from flasks and seeded at a density of 50,000 cells per well in 0.1 mL media containing the cyclic peptides at concentrations of 1, 0.1, or 0.01 mg/mL, or in the absence of cyclic peptide. Media control wells were also established. Cultures were evaluated periodically by microscopic examination under both bright field and phase contrast conditions. Cultures were maintained for 48 hours.

A further series relates to MDA-MB231. Kind of series: Cytotoxicity, MTT assay, MDA-MB231. Format: cell-based, human. Put shortly:
as §1

The test system of series [1] is Bovine pulmonary artery endothelial cells. The series can be described thus: Disruption of bovine endothelial cell adhesion. In kind it is cell-based. The settings on record: 500 μg/ml, 30 minutes. Here is the method: For use within one such assay, bovine pulmonary artery endothelial cells may be harvested by sterile ablation and digestion in 0.1% collagenase (type II; Worthington Enzymes, Freehold, N.J.). Cells may be maintained in Dulbecco's minimum essential medium supplemented with 10% fetal calf serum and 1% antibiotic-antimycotic at 37° C. in 7% CO2 in air. Cultures may be passaged weekly in trypsin-EDTA and seeded onto tissue culture plastic at 20,000 cells/cm^2. Endothelial cultures may be used at 1 week in culture, which is approximately 3 days after culture confluency is established. The cells may be seeded onto coverslips and treated (e.g., for 30 minutes) with modulating agent or a control compound at, for example, 500 μg/ml and then fixed with 1% paraformaldehyde. As noted above, disruption of cell adhesion may be determined visually within 24 hours, by observing retraction of the cells from one another. This assay evaluates the effect of a modulating agent on N-cadherin mediated cell adhesion.
Bovine pulmonary artery endothelial cells were harvested by sterile ablation and digestion in 0.1% collagenase (type II; Worthington Enzymes, Freehold, N.J.). Cells were maintained in Dulbecco's minimum essential medium (Clonetics, San Diego, Calif.) supplemented with 10% fetal calf serum (Atlantic Biologicals, Nor cross, Ga.) and 1% antibiotic-antimycotic at 37° C. in 7% CO2 in air. Cultures were passaged weekly in trypsin-EDTA (Gibco, Grand Island, N.Y.) and seeded onto tissue culture plastic at 20,000 cells/cm^2 for all experiments. Endothelial cultures were used at 1 week in culture, which is approximately 3 days after culture confluency was established. The cells used in all protocols were between 4th passage and 10th passage. The cells were seeded onto coverslips and treated 30 minutes with N—Ac-CHAVC-NH2 (SEQ ID NO:10) or N—Ac-CHGVC-NH2 (SEQ ID NO:11) at 500 μg/ml and then fixed with 1% paraformaldehyde.

“Also recorded” adds a separate entry of the source. Where two headings read alike, the source gives them in different places. Positions of bridges follow the written chain, without caps; N, C: chain ends. Residues, ends and D or L forms follow the SMILES beside them.

In general, IC50 refers to the point on the concentration scale where inhibition reaches its midpoint. Higher therefore signals weaker potency. As usually defined, the inhibition is the percentage by which the read-out fell short of the control. For `CC[C@H](C)[C@@H]1NC(=O)[C@H](CC(=O)O)NC(=O)[C@H](C(C)C)NC(=O)[C@H](C)NC(=O)[C@H](Cc2c[nH]cn2)NC(=O)[C@H](C)NC(=O)[C@@H](NC(C)=O)CSSC[C@@H](C(N)=O)NC1=O` (Ac-CAHAVDIC-NH2; disulfide 1-8), the IC50 in the series on PC-3 and in the series on MDA-MB231 was greater than 100 µM throughout. For the same molecule, the inhibition at 250 µg/mL on N-cadherin came to 82%. For the same molecule, the “activity in SKOV3 cells (cell adhesion)” value in the series with SKOV3 cells was “inactive”. In series [1] (listed as N—Ac-CAHAVDIC-NH2), the “effect on endothelial cell monolayer / morphology” value is listed as “neither of the cyclic peptides show activity; also recorded: had no effect on endothelial cell morphology”.
`CC(=O)N[C@H]1CSSC[C@@H](C(N)=O)NC(=O)[C@H](CC(=O)O)NC(=O)[C@H](C(C)C)NC(=O)[C@H](C)NC(=O)[C@H](Cc2c[nH]cn2)NC(=O)[C@H](C)NC1=O` [N—Ac—CAHAVDC—NH2, N-Ac-Cys-Ala-His-Ala-Val-Asp-Cys-NH2] (Ac-CAHAVDC-NH2; disulfide 1-7): the IC50 in the series with PC-3 and in the series with MDA-MB231 was greater than 100 µM throughout. For the same molecule, the “activity in SKOV3 cells (cell adhesion)” value in the series on SKOV3 cells is “inactive”. In series [1], the “effect on endothelial cell monolayer / morphology” value is on record as “endothelial cells retracted from one another; also recorded: had a slight effect”.
`CC(=O)N[C@H]1CSSC[C@@H](C(N)=O)NC(=O)[C@H](C(C)C)NC(=O)CNC(=O)[C@H](Cc2c[nH]cn2)NC1=O` [N—Ac—CHGVC—NH2, reference compound]: the IC50 in the series with PC-3 and with MDA-MB231 was greater than 100 µM throughout. The inhibition at 250 µg/mL on N-cadherin is 0%. The “disruption of SKOV3 cell adhesion” value in the series on SKOV3 cells is recorded as “had no affect on cell adhesion”. The “effect on endothelial cell monolayer / morphology” value in series [1] was “had no affect on the cells”.
`CC(=O)N[C@H]1CSSC[C@@H](C(N)=O)NC(=O)[C@H](C(C)C)NC(=O)[C@H](C)NC(=O)[C@H](Cc2c[nH]cn2)NC1=O` [N—Ac—CHAVC—NH2, N-Ac-Cys-His-Ala-Val-Cys-NH2]: the IC50 with PC-3 (human) was greater than 100 µM. For the same molecule, on N-cadherin, the “inhibition of neurite outgrowth (in words)” value is given as “significantly inhibited neurite outgrowth” and the inhibition at 250 µg/mL is 65%. Further, the “disruption of SKOV3 cell adhesion” value in the series with SKOV3 cells is listed as “disrupted SKOV3 cell adhesion”. In addition, in the series with SKOV3 cells (0.5 or 1 mg/ml, 24-48 hours (figure legends)), the SKOV3 cell morphology entry is “SKOV3 cells retract from one another and round-up”. Further, the half-maximal inhibitory concentration (IC50) in the series on MDA-MB231 (human) was greater than 100 µM. In series [1], the “effect on endothelial cell monolayer / morphology” value is on record as “endothelial cells retracted from one another; also recorded: disrupted the endothelial cell monolayer”.
